Source: patent US20190015400A1, “Antifungal Compositions” (priority 2017, published 2019)

How the values were obtained:
[1] = tested on: C. glabrata ATCC 2001 (strain H); assay: MIC and checkerboard assay, azoles + antihistamines; assay type: cell-based, Candida glabrata; settings: in combination with POS
Method: Determination of minimum inhibitory concentration (MIC) values. MIC values were recorded for all antifungals and antihistamines in order to determine the concentration range of compounds to be used in the checkerboard assays.
The MIC assays were done using the broth microdilution method as described in CLSI document M27-A3 with minor modifications. Yeast cultures were started by picking a colony from a PDA plate stored at 4° C. The colonies were grown in YEPD medium overnight at 35° C. with shaking at 200 rpm. In a 96-well plate compounds were diluted lengthwise along the plate in serial 2-fold dilutions in the RPMI 1640 medium. The yeast cultures were diluted in RPMI 1640 medium to an OD600 within the range of 0.12 and 0.15 (˜1×10^6 cells/mL). The fungal cells were further diluted by taking 25 μL of fungal cells and adding them to 10 mL of RPMI 1640 medium before adding 100 μL to plate (200 μL total volume). The plates were incubated at 35° C. for 48 h. Visual inspection of the wells for no growth was used to determine the MIC. All compounds were tested in duplicate (TABLES 6 and 7).
Checkerboard assays were done as previously described to determine the fractional inhibitory concentration index (FICI). 2-fold dilutions of the azole drug were made in RPMI 1640 medium lengthwise along the plate. For the antihistamine, 2-fold serial dilutions were made in sterile tubes with RPMI 1640 medium, then aliquoted into the plate. […] The maximal amount was used in the checkerboard assays if complete inhibition was not observed in the MIC assays. Cultures were started by picking a colony from a plate and growing in YEPD medium overnight at 35° C. with shaking at 200 rpm. Cultures were diluted in RPMI 1640 medium to an OD600 between 0.12 and 0.15 (˜1×10^6 cells/mL). Cells were then further diluted by taking 25 μL of cell suspension and adding to 10 mL of RPMI 1640 medium. After the drugs were added to the plate with 100 μL of medium, 100 μL of fungal cells were added. Plates were incubated at 35° C. for 48 h and visual inspection was used to determine wells with no growth. All experiments were carried out in duplicate. The FICI was calculated based on the formula below. The combinational effect of the 2 tested compounds were considered synergistic (SYN) if FICI≤0.5, additive (ADD) if 0.5<FICI≤4, and antagonistic if FICI>4 (TABLES 6-9).

[2] = tested on: C. albicans ATCC 10231 (strain B); assay: Time-kill assay, POS and EBA; assay type: cell-based, Candida albicans; settings: POS + EBA combination at 1×MIC
Method: (§1) The protocol for time-kill assays followed methods previously described with minor modifications. Yeast cultures were grown overnight in YEPD medium at 35° C. with shaking at 200 rpm. A working stock of fungal cells was made by diluting cultures in 1640 medium to an OD600 of 0.125 (˜1×10^6 CFU/mL). From the working stock, 100 μL of cells was added to 4.9 mL of RPMI 1640 medium in sterile culture tubes, making the starting fungal cell concentration ˜1×10^5 CFU/mL. Drug was then added to the fungal cells. […] Treated fungal cultures were incubated in the culture tubes at 35° C. with 200 rpm shaking for 24 h. Samples were aliquoted from the different treatments at regular time points (0, 3, 6, 9, 12, and 24 h) and plated in duplicate. For each time point, cultures were vortexed, 100 μL of culture was aspirated, and 10-fold serial dilutions were made in sterile ddH2O. From the appropriate dilutions, 100 μL of fungal suspension was spread on PDA plates and incubated at 35° C. for 48 h before colony counts were determined. At 24 h, 50 μL of 1 mM resazurin in phosphate buffered saline (PBS) was added to the treatments and incubated at 35° C. with 200 rpm shaking for 2 h in the dark for visual inspection. […] Experiments were performed in duplicate.

[3] = tested on: C. glabrata ATCC 2001 (strain H); assay: Time-kill assay, POS and EBA; assay type: cell-based, Candida glabrata; settings: POS + EBA combination at 1×MIC
Method: as §1

A549 cells = assay: Mammalian cytotoxicity (resazurin cell viability), POS and EBA; assay type: cell-based, human; settings: EBA alone at 25 μg/mL
Method: (§2) To examine whether the inhibitory effect of the antifungal and antihistamine combinations is specific to fungal cells, the combinations were tested with 4 mammalian cell lines: A459, BEAS-2B, HEK-293, and HaCaT. […] The assays were done in 96-well plates. A549 and BEAS-2B cells were plated at a density of 3×10^3 cells/mL, HaCaT were plated at 2×10^4 cells/mL, and HEK-293 cells were plated at 1×10^4 cells/mL as determined by using a hemacytometer. […] All assays were done in quadruplicate.

BEAS-2B cells = assay: as above; assay type: cell-based, human; settings: EBA alone at 25 μg/mL
Method: as §2

HEK-293 cells = assay: as above; assay type: cell-based, human; settings: EBA alone at 25 μg/mL
Method: as §2

HaCaT cells = assay: as above; assay type: cell-based, human; settings: EBA alone at 25 μg/mL
Method: as §2

[4] = aqueous assay medium, from DMSO stock

Compound | FICI [1] | CFU/mL through 24 h [2] | CFU/mL through 24 h [3] | cell survival (A549 cells) [%] | cell survival (BEAS-2B cells) [%] | cell survival (HEK-293 cells) [%] | cell survival (HaCaT cells) [%] | maximal concentration where no precipitation was observed [4] [µg/mL]
CC(C)(C)c1ccc(C(=O)CCCN2CCC(OC(c3ccccc3)c3ccccc3)CC2)cc1 [EBA, ebastine] | 0.05 | 10^6 CFU/mL | 10^6 CFU/mL | ~0 | ~0 | ~0 | ~0 | 
CC(C)(C)c1ccc(C(O)CCCN2CCC(C(O)(c3ccccc3)c3ccccc3)CC2)cc1 (centres unmarked) [TERF, terfenadine] |  |  |  |  |  |  |  | 42.7
